In US7968601B2, “Adamantyl acetamides as 11-β hydroxysteroid dehydrogenase inhibitors” (Janssen Pharmaceutica N.V., priority 2002, dated 2011):
pIC50: −log10 of the molar value.

Tests used:
11b-HSD1 [1] = molecular target: 11b-HSD1 (Homo sapiens, UniProt P28845); assay: Enzymatic assay, 11b-HSD1 reductase activity (conversion of cortisone into cortisol); assay type: biochemical; settings: pIC50 scored 1-3, read-out: [C1] HSD1-prot Reduct Score
Protocol: The effects of compounds on 11b-HSD1 dependent conversion of cortisone into cortisol (reductase activity) was studied in a reaction mixture containing 30 mM Tris-HCl buffer pH 7.2, 180 μM NADPH, 1 mM EDTA, 2 μM cortisone, 1 μl drug and/or solvent and 11 μg recombinant protein in a final volume of 100 μl.
(§1) All incubations were performed for 45 min at 37 C in a water bath. The reaction was stopped by adding 100 μl acetonitrile containing 20 μg corticosterone as internal standard. After centrifugation, the product formation was analysed in the supernatant by HPLC on a Hypersyl BDS-C18 column using 0.05 mM ammonium acetate/methanol (50/50) as solvent. In all of the aforementioned assays, the drugs to be tested were taken from a stock solution and tested at a final concentration ranging from […] to 3.10^−9M. From the thus obtained dose response curves, the pIC50 value was calculated and scored as follows; Score 1=pIC50 value<5, Score 2=pIC50 value in the range of 5 to 6, Score 3=pIC50 value>6. (in this table NT stands for Not Tested).

11b-HSD2 [2] = molecular target: T1, 11b-HSD2 (Homo sapiens, UniProt P80365); assay: Enzymatic assay, 11b-HSD2 dependent dehydrogenase activity; assay type: biochemical; settings: 11b-HSD2 dehydrogenase activity, pIC50 scored 1-3, read-out: [C1] HSD2 prot Dehydro Score
T1 sequence (P80365 1-405): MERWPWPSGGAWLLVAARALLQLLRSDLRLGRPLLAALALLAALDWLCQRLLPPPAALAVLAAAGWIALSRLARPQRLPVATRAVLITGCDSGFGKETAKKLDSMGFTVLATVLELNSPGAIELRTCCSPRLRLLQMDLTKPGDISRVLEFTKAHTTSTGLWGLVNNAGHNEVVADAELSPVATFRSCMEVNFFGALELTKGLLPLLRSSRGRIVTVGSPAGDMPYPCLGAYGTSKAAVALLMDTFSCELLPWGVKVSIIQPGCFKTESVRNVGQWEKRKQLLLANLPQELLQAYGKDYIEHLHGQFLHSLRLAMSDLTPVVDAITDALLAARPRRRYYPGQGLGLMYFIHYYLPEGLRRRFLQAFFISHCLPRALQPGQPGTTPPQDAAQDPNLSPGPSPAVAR
Protocol: The effects on the 11b-HSD2 dependent dehydrogenase activity was studied in a reaction mixture containing 0.1M sodium phosphate buffer pH 7.5, 300 μM NAD, 100 nM cortisol (of which 2 nM is 3H-radio labelled), 1 μl drug and/or solvent and 2.5 μg recombinant protein in a final volume of 100 μl.
as §1

11b-HSD1 [3] = molecular target: T2, 11b-HSD1 (Mus musculus, UniProt P50172); assay: Cellular assay, 11b-HSD1 activity in differentiated 3T3-L1 cells; assay type: cell-based; settings: 4 hour pre-incubation; for pIC50: pIC50 scored 1-3, read-out: [C2] HSD1 cellular 3T3-L1 Score
T2 construct: endogenous in cells; host or cells: 3T3-L1 (ATCC-CL-173), differentiated into adipocytes
Protocol: The effects on 11b-HSD1 activity was measured in differentiated 3T3-L1 cells and rat hepatocytes.
Mouse fibroblast 3T3-L1 cells (ATCC-CL-173) were seeded at a density of 16500 cells/ml in 12 well plates and grown for 7 days in DMEM medium (supplemented with 10% heat inactivated foetal calf serum, 2 mM glutamine and 25 mg gentamycin) at 37 C in a humidified 5% CO2 atmosphere. Medium was refreshed twice a week. Fibroblasts were differentiated into adipocytes at 37 C in a 5% CO2 humidified atmosphere in growth medium containing 2 μg/ml insulin, 55 μg/ml IBMX and 39.2 μg/ml dexamethasone.
Following a 4 hour pre-incubation with test compound, 0.5 μCi ^3H-cortisone or dehydrocorticosterone, was added to the cultures. One hour later, the medium was extracted on Extrelut^3-columns with 15 ml diethyl ether and the extract was analysed by HPLC as described above.
(§2) As for the enzymatic assays, the compounds to be tested were taken from a stock solution and tested at a final concentration ranging from […] to 3.10^−9M. From the thus obtained dose response curves, the pIC50 value was calculated and scored as follows; Score 1=pIC50 value<5, Score 2=pIC50 value in the range of 5 to 6, Score 3=pIC50 value>6. (in this table NT stands for Not Tested).

11b-HSD2 [4] = molecular target: T1, 11b-HSD2; assay: Cellular assay, 11b-HSD2 activity in HepG2 cells; assay type: cell-based; set-up: endogenous in cells; host or cells: HepG2 (ATCC HB-8065); settings: 4 hour pre-incubation; for pIC50: pIC50 scored 1-3, read-out: [C2] HSD2 cellular HepG2 Score
Protocol: The effects on 11b-HSD2 activity was studied in HepG2 and LCC-PK1-cells HepG2-cells (ATCC HB-8065) were seeded in 12 well plates at a density of 100,000 cells/ml and grown at 37 C in a humidified 5% CO2 atmosphere in MEM-Rega-3 medium supplemented with 10% heat inactivated foetal calf serum, 2 mM L-glutamine and sodium bicarbonate). Medium was refreshed twice a week. Pig kidney cells (LCC-PK1, ATCC CRL-1392) were seeded at a density of 150,000 cells/ml in 12 well plates and grown at 37 C in a humidified 5% CO2 atmosphere in Medium 199 supplemented with Earls modified salt solution, 100 U/ml penicillin, 100 μg/ml streptomycin and 10% foetal calf serum. Medium was refreshed twice a week. Twenty four hours prior to the onset of the experiment, medium was changed by medium containing 10% charcoal stripped foetal calf serum.
Following a 4 hour pre-incubation with test compound, 0.5 μCi ^3H-cortisol or corticosterone, was added to the cultures. One hour later, the medium was extracted on Extrelut^3-columns with 15 ml diethyl ether and the extract was analysed by HPLC as described above.
as §2

T2 sequence (P50172 whole entry): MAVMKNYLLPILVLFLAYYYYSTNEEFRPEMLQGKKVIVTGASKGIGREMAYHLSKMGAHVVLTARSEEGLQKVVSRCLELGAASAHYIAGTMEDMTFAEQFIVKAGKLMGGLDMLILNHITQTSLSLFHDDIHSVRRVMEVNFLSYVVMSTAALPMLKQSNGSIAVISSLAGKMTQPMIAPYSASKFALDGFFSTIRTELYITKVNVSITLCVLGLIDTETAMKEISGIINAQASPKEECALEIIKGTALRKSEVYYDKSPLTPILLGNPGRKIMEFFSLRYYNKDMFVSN
Chain of 11b-HSD1 (Homo sapiens, UniProt P28845) (P28845 whole entry): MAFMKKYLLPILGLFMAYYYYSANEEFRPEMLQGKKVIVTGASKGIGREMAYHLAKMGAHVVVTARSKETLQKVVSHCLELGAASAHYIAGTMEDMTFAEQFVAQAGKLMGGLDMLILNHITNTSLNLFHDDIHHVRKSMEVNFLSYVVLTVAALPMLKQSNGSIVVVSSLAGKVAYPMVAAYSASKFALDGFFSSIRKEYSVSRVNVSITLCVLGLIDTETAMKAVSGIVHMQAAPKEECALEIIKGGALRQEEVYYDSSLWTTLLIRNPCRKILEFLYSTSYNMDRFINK

SMILES	pIC50 (11b-HSD1 [1])	pIC50 (11b-HSD2 [2])	pIC50 (11b-HSD1 [3])	pIC50 (11b-HSD2 [4])	[C2] HSD1 cellular 3T3-L1 Score (11b-HSD1 [3]; pIC50 scored 1-3)	[C2] HSD2 cellular HepG2 Score (11b-HSD2 [4]; pIC50 scored 1-3)
NC(C(=O)NC1C2CC3CC(C2)CC1C3)c1ccccc1 (stereo not drawn) [Compound 50]	< 5.00	< 5.00	5.00 to 6.00	< 5.00	–	–
CN(C)c1ccc(C(C)(C)C(=O)NC2C3CC4CC(C3)CC2C4)cc1 (stereo not drawn) [Compound 52]	< 5.00	< 5.00	> 6.00	< 5.00	–	–
CCCOc1cccc(C(C)(C)C(=O)NC2C3CC4CC(C3)CC2C4)c1 (stereo not drawn) [Compound 53]	< 5.00	< 5.00	> 6.00	< 5.00	–	–
CC1(C)C2CCC1(C)C(NC(=O)C1(c3ccccc3)CC1)C2 (stereo not drawn) [Compound 55]	–	< 5.00	> 6.00	< 5.00	–	–
CC1C(NC(=O)C2(c3ccccc3)CC2)CC2CC1C2(C)C (stereo not drawn) [Compound 56]	–	< 5.00	5.00 to 6.00	< 5.00	–	–
CC1(C)C2CCC1(C)C(NC(=O)C1(c3ccccc3)CCCC1)C2 (stereo not drawn) [Compound 57]	–	< 5.00	5.00 to 6.00	< 5.00	–	–
O=C(NC1CC2CCC1C2)C1(c2ccccc2)CC1 (stereo not drawn) [Compound 64]	–	< 5.00	5.00 to 6.00	< 5.00	–	–
CC(C)(C(=O)NC1C2CC3CC(C2)CC1C3)c1cccc(OCCN2CCCC2)c1 (stereo not drawn) [Compound 71]	> 6.00	–	> 6.00	< 5.00	–	–
CC(C)(C(=O)NC1C2CC3CC(C2)CC1C3)c1ccc(OCC(=O)O)cc1 (stereo not drawn) [Compound 72]	5.00 to 6.00	< 5.00	> 6.00	< 5.00	–	–
CC(C)(C(=O)NC1C2CC3CC(C2)CC1C3)c1ccc(OCCN2CCOCC2)cc1 (stereo not drawn) [Compound 73]	< 5.00	< 5.00	> 6.00	< 5.00	–	–
COc1cccc(C(C)(C)C(=O)NC2CCC3CCCC2C3)c1 (stereo not drawn) [Compound 74]	> 6.00	< 5.00	> 6.00	< 5.00	–	–
CN(Cc1ccccc1)c1ccc(C(C)(C)C(=O)NC2C3CC4CC(C3)CC2C4)cc1 (stereo not drawn) [Compound 81]	> 6.00	–	5.00 to 6.00	< 5.00	–	–
COc1ccc(OC)c(C(C)(C)C(=O)NC2C3CC4CC(C3)CC2C4)c1 (stereo not drawn) [Compound 93]	> 6.00	–	> 6.00	< 5.00	–	–
CC(C)(C(=O)NC1C2CC3CC(C2)CC1C3)c1cc(F)cc(F)c1 (stereo not drawn) [Compound 95]	< 5.00	–	> 6.00	< 5.00	–	–
CC(C)(C(=O)NC1C2CC3CC(C2)CC1C3)c1ccc(Cl)cc1Cl (stereo not drawn) [Compound 106]	< 5.00	–	> 6.00	< 5.00	–	–
COC12CC3CC(C1)C(NC(=O)C(C)(C)c1ccccc1)C(C3)C2 (stereo not drawn) [Compound 109]	> 6.00	–	> 6.00	< 5.00	–	–
COc1ccc(OC)c(C(C)(C)C(=O)NC2C3CC4CC(C3)CC2C4)c1 (stereo not drawn) [Compound 154]	< 5.00	–	–	–	3 (Score 3=pIC50 value>6)	1 (Score 1=pIC50 value<5)
O=C(NC1C2CC3CC(C2)CC1C3)C1CCc2ccccc2N1 (stereo not drawn) [Compound 253]	–	< 5.00	> 6.00	< 5.00	–	–
O=C(NC1C2CC3CC(C2)CC1C3)[C@H]1Cc2ccccc2CN1 (stereo partly drawn) [Compound 255]	–	< 5.00	> 6.00	< 5.00	–	–
